Drawing on ChEMBL document CHEMBL3991601, “The target landscape of clinical kinase drugs” (Science, 2017), this text covers Kd for 13 molecules.

The structures appear in SMILES notation. The source made the active and inactive calls.

The target in assay [1] is Cyclin-dependent kinase 6 (Homo sapiens, UniProt Q00534).
The target of assay [2] is T1, Ephrin type-B receptor 6 (Homo sapiens, UniProt O15197).
T1 sequence (O15197 whole entry): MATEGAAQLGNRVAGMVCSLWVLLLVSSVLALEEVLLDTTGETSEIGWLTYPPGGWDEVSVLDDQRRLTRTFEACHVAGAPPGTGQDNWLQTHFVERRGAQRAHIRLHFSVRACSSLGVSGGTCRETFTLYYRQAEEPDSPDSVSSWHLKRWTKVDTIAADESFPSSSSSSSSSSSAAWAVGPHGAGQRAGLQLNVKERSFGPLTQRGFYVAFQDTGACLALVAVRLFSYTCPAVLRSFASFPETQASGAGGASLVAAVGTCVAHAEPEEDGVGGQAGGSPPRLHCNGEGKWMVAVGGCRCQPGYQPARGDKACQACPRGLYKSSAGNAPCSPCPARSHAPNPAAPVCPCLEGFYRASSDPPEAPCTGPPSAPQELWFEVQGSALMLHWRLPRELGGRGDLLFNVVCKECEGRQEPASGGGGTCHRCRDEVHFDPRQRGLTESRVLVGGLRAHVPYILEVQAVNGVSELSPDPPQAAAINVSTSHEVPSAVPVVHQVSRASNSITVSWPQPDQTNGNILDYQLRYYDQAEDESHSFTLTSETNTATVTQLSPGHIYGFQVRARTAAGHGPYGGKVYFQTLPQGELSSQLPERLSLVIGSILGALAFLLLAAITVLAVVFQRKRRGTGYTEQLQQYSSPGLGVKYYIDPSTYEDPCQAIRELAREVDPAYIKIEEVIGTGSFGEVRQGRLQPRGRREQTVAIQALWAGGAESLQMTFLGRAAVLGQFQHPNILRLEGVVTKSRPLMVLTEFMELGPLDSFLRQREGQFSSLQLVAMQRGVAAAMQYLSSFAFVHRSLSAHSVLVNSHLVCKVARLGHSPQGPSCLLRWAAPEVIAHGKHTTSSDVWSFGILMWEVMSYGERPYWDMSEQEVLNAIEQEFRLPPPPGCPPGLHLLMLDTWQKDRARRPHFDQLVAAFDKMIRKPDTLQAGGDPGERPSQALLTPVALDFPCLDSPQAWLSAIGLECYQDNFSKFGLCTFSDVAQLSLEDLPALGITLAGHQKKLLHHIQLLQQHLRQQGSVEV

Assay [3] deals with T2, Mitogen-activated protein kinase 15 (Homo sapiens, UniProt Q8TD08).
T2 sequence (Q8TD08 whole entry): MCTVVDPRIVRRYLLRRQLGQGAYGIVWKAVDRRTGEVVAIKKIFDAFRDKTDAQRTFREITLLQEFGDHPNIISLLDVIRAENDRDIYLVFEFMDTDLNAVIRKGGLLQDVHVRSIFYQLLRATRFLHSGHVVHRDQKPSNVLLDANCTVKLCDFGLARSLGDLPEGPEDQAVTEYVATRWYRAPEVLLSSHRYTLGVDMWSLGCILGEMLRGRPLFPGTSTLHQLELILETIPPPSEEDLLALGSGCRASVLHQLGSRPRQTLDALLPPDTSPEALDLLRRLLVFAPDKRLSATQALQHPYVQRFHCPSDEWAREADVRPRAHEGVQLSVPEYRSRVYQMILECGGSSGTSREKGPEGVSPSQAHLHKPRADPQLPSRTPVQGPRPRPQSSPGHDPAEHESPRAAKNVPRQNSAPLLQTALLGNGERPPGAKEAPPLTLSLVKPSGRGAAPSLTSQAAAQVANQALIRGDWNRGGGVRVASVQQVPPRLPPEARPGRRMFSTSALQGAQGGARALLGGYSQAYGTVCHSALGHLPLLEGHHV

For assay [4], the target named is Ras-related protein Rab-6A (Homo sapiens, UniProt P20340).
Sequence of Ras-related protein Rab-6A (P20340 whole entry): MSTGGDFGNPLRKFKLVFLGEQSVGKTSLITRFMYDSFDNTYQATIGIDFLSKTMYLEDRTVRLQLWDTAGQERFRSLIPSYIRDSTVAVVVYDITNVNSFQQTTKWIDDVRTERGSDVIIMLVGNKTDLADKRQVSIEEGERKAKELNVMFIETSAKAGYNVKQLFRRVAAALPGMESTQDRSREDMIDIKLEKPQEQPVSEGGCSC
Assay [5] addresses U5 small nuclear ribonucleoprotein 200 kDa helicase (Homo sapiens, UniProt O75643).
For assay [6], the target named is T3, Serine/threonine-protein kinase STK11 (Homo sapiens, UniProt Q15831).
T3 sequence (Q15831 whole entry): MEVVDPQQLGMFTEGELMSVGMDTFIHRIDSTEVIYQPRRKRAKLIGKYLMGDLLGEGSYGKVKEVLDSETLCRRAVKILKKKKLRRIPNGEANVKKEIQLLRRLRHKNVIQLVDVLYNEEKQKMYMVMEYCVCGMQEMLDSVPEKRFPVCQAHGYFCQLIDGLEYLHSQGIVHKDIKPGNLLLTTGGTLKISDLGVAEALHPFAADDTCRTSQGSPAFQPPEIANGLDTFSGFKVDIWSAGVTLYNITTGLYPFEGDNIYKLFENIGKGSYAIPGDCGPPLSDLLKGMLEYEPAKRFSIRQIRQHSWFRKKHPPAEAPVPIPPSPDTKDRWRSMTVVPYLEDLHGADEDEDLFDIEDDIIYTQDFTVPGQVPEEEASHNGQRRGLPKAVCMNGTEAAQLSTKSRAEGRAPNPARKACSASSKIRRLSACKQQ

Assay [7] deals with Dual specificity testis-specific protein kinase 1 (Homo sapiens, UniProt Q15569).
Sequence of Dual specificity testis-specific protein kinase 1 (Q15569 whole entry): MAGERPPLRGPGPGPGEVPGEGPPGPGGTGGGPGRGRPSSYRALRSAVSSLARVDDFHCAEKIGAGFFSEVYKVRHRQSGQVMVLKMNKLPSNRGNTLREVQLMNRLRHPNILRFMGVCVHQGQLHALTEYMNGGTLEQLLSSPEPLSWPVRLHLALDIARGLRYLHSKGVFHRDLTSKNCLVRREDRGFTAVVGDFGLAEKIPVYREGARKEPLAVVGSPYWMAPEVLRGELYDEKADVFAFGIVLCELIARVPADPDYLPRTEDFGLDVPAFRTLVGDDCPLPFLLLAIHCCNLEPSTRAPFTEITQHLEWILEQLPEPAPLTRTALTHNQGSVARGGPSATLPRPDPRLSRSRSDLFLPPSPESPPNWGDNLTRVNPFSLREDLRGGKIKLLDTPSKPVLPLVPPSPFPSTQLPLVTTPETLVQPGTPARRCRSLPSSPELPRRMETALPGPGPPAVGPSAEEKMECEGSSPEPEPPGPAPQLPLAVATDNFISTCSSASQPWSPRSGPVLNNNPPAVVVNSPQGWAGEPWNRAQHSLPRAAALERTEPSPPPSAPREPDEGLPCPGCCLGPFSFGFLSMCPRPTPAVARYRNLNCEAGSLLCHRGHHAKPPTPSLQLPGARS
Assay [8] addresses Wee1-like protein kinase (Homo sapiens, UniProt P30291).

Broadly, the Kd is the equilibrium constant for the complex coming apart.
Also: in the data inactive means no Kd found up to 30 µM.

Sequence of Cyclin-dependent kinase 6 (Q00534 whole entry): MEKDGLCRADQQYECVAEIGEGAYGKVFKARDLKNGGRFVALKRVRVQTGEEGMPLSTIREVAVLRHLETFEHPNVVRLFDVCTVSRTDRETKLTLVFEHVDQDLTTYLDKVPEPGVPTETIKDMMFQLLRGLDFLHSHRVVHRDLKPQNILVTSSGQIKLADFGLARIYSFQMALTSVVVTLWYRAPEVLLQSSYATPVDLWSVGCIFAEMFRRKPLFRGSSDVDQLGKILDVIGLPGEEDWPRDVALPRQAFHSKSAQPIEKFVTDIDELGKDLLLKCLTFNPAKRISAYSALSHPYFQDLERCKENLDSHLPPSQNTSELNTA
Sequence of U5 small nuclear ribonucleoprotein 200 kDa helicase (O75643 whole entry): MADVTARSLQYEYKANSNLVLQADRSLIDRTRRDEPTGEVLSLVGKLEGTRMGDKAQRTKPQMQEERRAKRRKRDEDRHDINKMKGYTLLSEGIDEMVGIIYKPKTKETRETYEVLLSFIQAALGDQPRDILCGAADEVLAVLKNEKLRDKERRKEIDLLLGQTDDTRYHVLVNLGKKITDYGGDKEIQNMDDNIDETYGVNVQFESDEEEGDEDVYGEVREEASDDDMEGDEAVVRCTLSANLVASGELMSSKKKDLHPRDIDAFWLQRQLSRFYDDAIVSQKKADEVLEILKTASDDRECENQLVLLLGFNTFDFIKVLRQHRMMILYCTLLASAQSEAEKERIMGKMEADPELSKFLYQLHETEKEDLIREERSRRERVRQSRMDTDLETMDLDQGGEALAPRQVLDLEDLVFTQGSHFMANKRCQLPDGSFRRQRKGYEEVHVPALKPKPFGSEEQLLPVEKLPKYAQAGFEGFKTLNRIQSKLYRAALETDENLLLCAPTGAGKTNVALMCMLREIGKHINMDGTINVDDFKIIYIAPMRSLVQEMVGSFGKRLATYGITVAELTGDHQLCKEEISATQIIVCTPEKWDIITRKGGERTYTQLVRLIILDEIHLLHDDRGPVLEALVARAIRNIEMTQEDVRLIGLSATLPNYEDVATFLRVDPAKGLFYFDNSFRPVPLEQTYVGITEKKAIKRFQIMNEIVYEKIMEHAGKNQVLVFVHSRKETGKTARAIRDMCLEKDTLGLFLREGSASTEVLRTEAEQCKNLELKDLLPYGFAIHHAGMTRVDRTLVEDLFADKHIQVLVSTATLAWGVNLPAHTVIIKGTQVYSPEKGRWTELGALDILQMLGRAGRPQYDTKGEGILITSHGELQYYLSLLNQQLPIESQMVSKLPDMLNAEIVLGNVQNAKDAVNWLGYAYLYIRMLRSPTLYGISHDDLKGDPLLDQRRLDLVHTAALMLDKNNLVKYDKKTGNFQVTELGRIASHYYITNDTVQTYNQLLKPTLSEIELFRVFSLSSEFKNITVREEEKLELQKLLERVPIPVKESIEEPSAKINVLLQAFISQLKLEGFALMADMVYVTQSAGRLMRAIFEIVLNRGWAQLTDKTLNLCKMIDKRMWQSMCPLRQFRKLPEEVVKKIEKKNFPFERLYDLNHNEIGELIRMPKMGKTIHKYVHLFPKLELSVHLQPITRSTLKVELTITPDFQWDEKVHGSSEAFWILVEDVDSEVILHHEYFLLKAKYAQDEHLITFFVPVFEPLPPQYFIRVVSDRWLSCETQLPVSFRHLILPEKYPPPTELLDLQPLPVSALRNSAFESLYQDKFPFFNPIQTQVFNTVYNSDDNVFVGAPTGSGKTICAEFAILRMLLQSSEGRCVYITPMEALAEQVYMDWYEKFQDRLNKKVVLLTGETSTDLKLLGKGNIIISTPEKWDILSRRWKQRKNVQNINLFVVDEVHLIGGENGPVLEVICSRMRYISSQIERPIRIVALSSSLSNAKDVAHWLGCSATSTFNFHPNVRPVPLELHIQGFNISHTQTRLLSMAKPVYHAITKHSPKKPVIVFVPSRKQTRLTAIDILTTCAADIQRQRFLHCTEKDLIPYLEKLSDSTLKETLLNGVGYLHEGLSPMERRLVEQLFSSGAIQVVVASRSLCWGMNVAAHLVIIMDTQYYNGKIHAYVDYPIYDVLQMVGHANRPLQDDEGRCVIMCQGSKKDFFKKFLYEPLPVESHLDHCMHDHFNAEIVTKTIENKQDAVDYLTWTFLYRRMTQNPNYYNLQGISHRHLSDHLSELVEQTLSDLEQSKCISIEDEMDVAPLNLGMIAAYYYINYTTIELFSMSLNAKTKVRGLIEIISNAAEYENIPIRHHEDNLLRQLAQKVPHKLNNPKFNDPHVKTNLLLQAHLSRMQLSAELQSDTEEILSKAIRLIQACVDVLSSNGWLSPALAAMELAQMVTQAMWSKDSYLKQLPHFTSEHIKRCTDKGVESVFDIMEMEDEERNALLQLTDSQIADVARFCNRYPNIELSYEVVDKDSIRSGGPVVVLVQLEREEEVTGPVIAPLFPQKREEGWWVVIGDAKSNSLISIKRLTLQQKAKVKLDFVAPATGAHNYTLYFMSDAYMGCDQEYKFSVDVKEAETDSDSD
Sequence of Wee1-like protein kinase (P30291 whole entry): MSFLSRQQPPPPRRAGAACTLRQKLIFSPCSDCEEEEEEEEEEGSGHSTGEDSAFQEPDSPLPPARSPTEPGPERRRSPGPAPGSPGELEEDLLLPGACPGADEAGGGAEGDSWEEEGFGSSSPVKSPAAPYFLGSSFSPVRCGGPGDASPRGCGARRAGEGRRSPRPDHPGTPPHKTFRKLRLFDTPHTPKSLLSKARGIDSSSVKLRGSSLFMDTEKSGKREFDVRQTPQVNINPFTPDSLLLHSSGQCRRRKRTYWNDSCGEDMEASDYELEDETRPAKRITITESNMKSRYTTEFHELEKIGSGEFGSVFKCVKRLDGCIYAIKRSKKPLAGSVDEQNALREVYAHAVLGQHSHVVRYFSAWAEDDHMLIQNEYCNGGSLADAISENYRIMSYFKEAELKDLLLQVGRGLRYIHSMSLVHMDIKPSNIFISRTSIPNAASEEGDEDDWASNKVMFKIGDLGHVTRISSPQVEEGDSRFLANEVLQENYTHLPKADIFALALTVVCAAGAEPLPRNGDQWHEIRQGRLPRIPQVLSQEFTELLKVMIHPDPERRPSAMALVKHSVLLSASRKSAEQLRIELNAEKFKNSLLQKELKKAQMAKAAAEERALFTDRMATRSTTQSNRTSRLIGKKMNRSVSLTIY

With `CCCCCCCCCCCCCCCCCCOP(=O)([O-])OC1CC[N+](C)(C)CC1` [PERIFOSINE], the Kd in assay [1], in assay [2], in assay [3], in assay [4], in assay [5] and in assay [6] was > 30 µM (inactive) in each case. In addition, the Kd in assay [7] and in assay [8] was > 30 µM (inactive) each time.

Turning to `Cc1nc(Nc2n[nH]c3c2CN(C(=O)N[C@H](CN(C)C)c2ccccc2)C3(C)C)c2sccc2n1` [PF-03758309], the Kd in assay [1] was > 30 µM (inactive); in assay [2] it was > 30 µM (inactive); in assay [3] it was > 30 µM (inactive); in assay [4], > 30 µM (inactive); in assay [5] it was > 30 µM (inactive); in assay [6] it was 0.434 µM (active). The Kd was > 30 µM (inactive) in assay [7] and 2.77 µM (active) in assay [8].

Consider `CC(=O)NCC(=O)N1[C@@H]2CC[C@H]1c1ccc(Nc3ncc(C(F)(F)F)c(NC4CCC4)n3)cc12` [PF-03814735], for which the Kd is 2.08 µM (active) in assay [1]; > 30 µM (inactive) in assay [2]; > 30 µM (inactive) in assay [3]; > 30 µM (inactive) in assay [4]; > 30 µM (inactive) in assay [5]; > 30 µM (inactive) in assay [6]. Besides, the results for the Kd in assay [7] and in assay [8] were > 30 µM (inactive) and 1.59 µM (active), respectively.

With `Cc1cnc(NC(=O)Nc2cc(Br)c(C)cc2OC[C@@H]2CNCCO2)cn1` [RABUSERTIB], the Kd in assay [1], in assay [2], in assay [3], in assay [4], in assay [5] and in assay [6] was > 30 µM (inactive) in each case. For the same molecule, the Kd in assay [7] and in assay [8] was > 30 µM (inactive) each time.

As to `CNC(=O)c1cc(Oc2ccc(NC(=O)Nc3cc(C(C)(C)C)nn3-c3ccc4ncccc4c3)c(F)c2)ccn1` [REBASTINIB], the Kd was > 30 µM (inactive) in assay [1]; > 30 µM (inactive) in assay [2]; 0.276 µM (active) in assay [3]; > 30 µM (inactive) in assay [4]; > 30 µM (inactive) in assay [5]; > 30 µM (inactive) in assay [6]. Moreover, the Kd in assay [7] and in assay [8] was > 30 µM (inactive) each time.

As for `CO[C@H]1C[C@@H]2CC[C@@H](C)[C@@](O)(O2)C(=O)C(=O)N2CCCC[C@H]2C(=O)O[C@H]([C@H](C)C[C@@H]2CC[C@@H](OP(C)(C)=O)[C@H](OC)C2)CC(=O)[C@H](C)/C=C(\C)[C@@H](O)[C@@H](OC)C(=O)[C@H](C)C[C@H](C)/C=C/C=C/C=C/1C` [RIDAFOROLIMUS], the Kd in assay [1], in assay [2], in assay [3], in assay [4], in assay [5] and in assay [6] was > 30 µM (inactive) throughout. For the same molecule, the Kd in assay [7] and in assay [8] was > 30 µM (inactive) in each case.

For the molecule `N#CC1(c2ccc(NC(=O)c3cccnc3NCc3ccncc3)cc2)CCCC1` [RIVOCERANIB], the Kd in assay [1], in assay [2], in assay [3], in assay [4], in assay [5] and in assay [6] was > 30 µM (inactive) in each case. Moreover, the Kd in assay [7] and in assay [8] was > 30 µM (inactive) throughout.

On to `O=c1[nH]ccc2cc(OC3CCNCC3)ccc12` [SAR-407899 FREE BASE], for which the Kd in assay [1], in assay [2], in assay [3], in assay [4], in assay [5] and in assay [6] was > 30 µM (inactive) throughout. Further, the Kd in assay [7] and in assay [8] was > 30 µM (inactive) each time.

On to `CN1CCN(CCOc2cc(OC3CCOCC3)c3c(Nc4c(Cl)ccc5c4OCO5)ncnc3c2)CC1` [SARACATINIB], for which the Kd in assay [1] was > 30 µM (inactive); in assay [2], 3.6 µM (active); in assay [3] it was > 30 µM (inactive); in assay [4], > 30 µM (inactive); in assay [5], > 30 µM (inactive); in assay [6] it was > 30 µM (inactive). The Kd in assay [7] and in assay [8] was > 30 µM (inactive) in each case.

Turning to `Cn1cc(-c2cnn3c(N)c(Br)c([C@@H]4CCCNC4)nc23)cn1` [SCH-900776], the Kd in assay [1], in assay [2], in assay [3], in assay [4], in assay [5] and in assay [6] was > 30 µM (inactive) throughout. Also, the Kd in assay [7] and in assay [8] was > 30 µM (inactive) in each case.

Regarding `CO[C@H]1C[C@@H]2CC[C@@H](C)[C@@](O)(O2)C(=O)C(=O)N2CCCC[C@H]2C(=O)O[C@H]([C@H](C)C[C@@H]2CC[C@@H](O)[C@H](OC)C2)CC(=O)[C@H](C)/C=C(\C)[C@@H](O)[C@@H](OC)C(=O)[C@H](C)C[C@H](C)/C=C/C=C/C=C/1C` [SIROLIMUS], the Kd in assay [1], in assay [2], in assay [3], in assay [4], in assay [5] and in assay [6] was > 30 µM (inactive) in each case. For the same molecule, the Kd in assay [7] and in assay [8] was > 30 µM (inactive) each time.

For `CCS(=O)(=O)c1cccc(-c2cc(C(=O)NC3CCN(C)CC3)c(C)c3[nH]c4ncc(C)cc4c23)c1` [TAK-901], the Kd in assay [1] was > 30 µM (inactive); in assay [2], 0.451 µM; in assay [3], > 30 µM (inactive); in assay [4], > 30 µM (inactive); in assay [5], > 30 µM (inactive); in assay [6], > 30 µM (inactive). The Kd in assay [7] and in assay [8] was > 30 µM (inactive) each time.

For the molecule `CO[C@H]1C[C@@H]2CC[C@@H](C)[C@@](O)(O2)C(=O)C(=O)N2CCCC[C@H]2C(=O)O[C@H]([C@H](C)C[C@@H]2CC[C@@H](OC(=O)C(C)(CO)CO)[C@H](OC)C2)CC(=O)[C@H](C)/C=C(\C)[C@@H](O)[C@@H](OC)C(=O)[C@H](C)C[C@H](C)/C=C/C=C/C=C/1C` [TEMSIROLIMUS], the Kd in assay [1], in assay [2], in assay [3], in assay [4], in assay [5] and in assay [6] was > 30 µM (inactive) each time. Moreover, the Kd in assay [7] and in assay [8] was > 30 µM (inactive) in each case.
